The record followed here is paper PMC6874683, “Pyrrothiogatain acts as an inhibitor of GATA family proteins and inhibits Th2 cell differentiation in vitro” (Scientific Reports, 2019).

Series [1] addresses T1, RelA (Homo sapiens, UniProt Q04206).
T1 construct: FLAG; made in house; host or cells: wheat cell-free protein synthesis system (inferred from the general methods)
The experiment in a line: AlphaScreen binding assay of RelA and its target DNA (control). Conditions: second screen, 0 to 10 µM. An excerpt: Figure 2 Identification of a GATA3 inhibitor using the wheat cell-free drug screening system. (A) A flow chart of the high-throughput screening to identify the 3-(2,5-dimethyl-1H-pyrrol-1-yl)thiophene-2-carboxylic acid that inhibits the DNA-binding activity of GATA3. The 3-(2,5-dimethyl-1H-pyrrol-1-yl)thiophene-2-carboxylic acid was named pyrrothiogatain (pyrrole and thiofuran containing GATA3 inhibitor). (B) The results of the first screen using 9,600 compounds. In the assay, each chemical compound was used at a final concentration of 10 µM. (C) The results of the second screening that show the inhibition rate of pyrrothiogatain. The inhibition assay of GATA3 DNA-binding activity was performed in the presence of various concentrations of pyrrothiogatain (0 to 10 µM). Biotinylated FLAG-peptide was used as a control to measure the interference of compounds in the AlphaScreen assay. In addition, a binding assay of RelA and its target DNA was used as control for GATA3. (D) Electrophoretic mobility shift assay (EMSA) of GATA3 with its consensus motif containing oligonucleotide in the presence of various concentrations of pyrrothiogatain (0 to 100 µM). GATA3 consensus oligonucleotide labelled with ^32P was detected by autoradiography. […] In (B,D,E), all data are expressed as individual points of three independent experiments with error bars indicating standard deviation. […]

The subject of series [2] is Jurkat cells. The experiment in a line: MTS assay (cytotoxicity). Format: cell-based. Conditions: 0 to 100 µM, 3 days. The method, then:
Jurkat cells were cultured at 37 °C with 5% CO2 in RPMI 1640 Medium (cat#72400047; Thermo Fisher) in the presence or absence of pyrrothiogatain (0 to 100 µM). Cell viability was measured using a CellTiter 96® AQueous One Solution Cell Proliferation Assay (cat#G3582; Promega) according to the manufacturer’s protocol.

The test system of series [3] is cytokine, GATA3 and Tbx21 mRNA. The series can be described thus: Quantitative RT-PCR, total CD4+ T cells under IL-2 conditions. Format: cell-based, mouse. Conditions: 30 µM, five days. The method, then:
C57BL/6 mice were purchased from Clea (Clea Japan, Inc., Tokyo, Japan). Total CD4^+ T cells isolated from mouse spleen were prepared using a FITC anti-mouse CD4 antibody (Cat#100510, RM4–5, BioLegend) and anti-FITC-microbeads (Cat#130-097-050, Miltenyi Biotec). Naive CD4^+ T cells (CD44^low, CD62L^high) were prepared using a MojoSort Mouse CD4 T cell Isolation Kit (Cat#480033), BioLegend). Biotinylated anti-CD44 (Cat#103004, IM7) and anti-CD25 antibodies (Cat#102004, PC61) were purchased from BioLegend. CD4^+ T cells (7.5 × 10^5) were stimulated using immobilized anti-TCR-β mAb (3 µg/mL, H57–597, BioLegend) plus an anti-CD28 mAb (1.0 µg/mL, cat#40–0281, TONBO Biosciences) for 2 days, and then, the cells were further expanded under similar conditions for an additional 3 days. IL-2 conditions: IL-2 (10 ng/mL, Pepro Tech); Th2 conditions: IL-2 (10 ng/mL, Pepro Tech), IL-4 (1 ng/mL, Pepro Tech), and anti-IFN-γ mAb (2.5 µg/mL, cat#40–731, TONBO Biosciences). Th1 conditions: IL-2 (10 ng/mL, Pepro Tech), IL-12 (1 ng/mL, Pepro Tech), and anti-IL-4 mAb (2.5 µg/mL, cat#40–731, TONBO Biosciences). The cultured cells were subjected to intracellular staining, ELISA assay, and RT-PCR. All animal experiments received approval from the Ehime University Administrative Panel for Animal Care. All animal care was conducted in accordance with the guidelines of Ehime University.
Total RNA was isolated using the TRI Reagent (Molecular Research Center, Inc.). Reverse transcription and qRT-PCR were performed using the Transcriptor First Strand cDNA Synthesis Kit (Cat#04379012001, Roche) and FastStart Essential DNA Green Master (Cat#06402712001, Roche), according to the manufacturer’s protocols. qRT-PCR primers were used as follow; IL-4: 5′-GATCGGCATTTTCAACGAG-3′ (forward), 5′-[…]-3′ (reverse); IL-13: 5′-[…]-3′ (forward), 5′-[…]-3′ (reverse); IFN-γ: 5′-[…]-3′ (forward), 5′-[…]-3′ (reverse); IL-2: 5′-[…]-3′ (forward), 5′-[…]-3′ (reverse); Gata3: 5′-TTATCAAGCCCAAGCGAAG-3′ (forward), 5′-TGGTGGTGGTCTGACAGTT-3′ (reverse); and Tbx21: 5′-[…]-3′ (forward), 5′-[…]-3′ (reverse).
(C) Quantitative RT-PCR analysis of the pyrrothiogatain-treated Th2 cells shown in panel (A).

T1 sequence (Q04206 whole entry, species assumed): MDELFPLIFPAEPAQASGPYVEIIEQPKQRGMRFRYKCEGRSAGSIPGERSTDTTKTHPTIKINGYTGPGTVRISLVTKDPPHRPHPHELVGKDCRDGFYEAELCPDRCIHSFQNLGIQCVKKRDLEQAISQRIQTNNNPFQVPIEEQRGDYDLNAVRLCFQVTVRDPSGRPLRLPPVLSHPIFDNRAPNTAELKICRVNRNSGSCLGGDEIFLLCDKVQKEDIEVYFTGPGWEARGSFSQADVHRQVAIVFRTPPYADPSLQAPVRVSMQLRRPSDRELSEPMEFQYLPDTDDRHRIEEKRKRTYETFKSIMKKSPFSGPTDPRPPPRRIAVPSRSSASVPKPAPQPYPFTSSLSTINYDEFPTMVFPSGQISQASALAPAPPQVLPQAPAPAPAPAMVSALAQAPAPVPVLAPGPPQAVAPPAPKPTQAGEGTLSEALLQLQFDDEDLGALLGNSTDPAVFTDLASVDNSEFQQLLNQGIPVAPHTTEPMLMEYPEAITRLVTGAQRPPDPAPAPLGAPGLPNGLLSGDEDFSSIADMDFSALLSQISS

Regarding `Cc1ccc(C)n1-c1ccsc1C(=O)O` [Pyrrothiogatain, 3-(2,5-dimethyl-1H-pyrrol-1-yl)thiophene-2-carboxylic acid], the “Interference with the RelA-DNA interaction” value in series [1] was “without interfering”. For the same molecule, the Cell viability entry in series [2] is “did not influence cell viability”. Moreover, in series [3], the “Expression of GATA3, mRNA level” value is “not influenced”; the “Expression of Tbx21” value is listed as “increased”; the “mRNA expression of IFN-γ (RT-qPCR)” value is on record as “Increased”; the “mRNA expression of IL-4, IL-5, IL-10, and IL-13 (RT-qPCR)” value is “decreased”.
